Data as given in patent US9556217B2, “Amphiphilic compounds” (WISCONSIN ALUMNI RESEARCH FOUNDATION, priority 2012, dated 2017).

Columns and labels:
wild type β2AR (β2AR WT) = molecular target: T1, wild type β2AR (β2AR WT) (Homo sapiens, UniProt P07550); assay: β2AR WT activity after extraction ([3H]-dihydroalprenolol binding); format: biochemical; settings: for β2AR WT initial activity: extracted with 1 wt % or 2 wt % amphiphile; for β2AR WT activity over 72 hours: solubilized samples stored at 4° C.
T1 construct: made in house; host or cells: Sf9 insect cells (baculovirus); lysed cells and membranes extracted directly with amphiphile
T1 sequence (P07550 whole entry): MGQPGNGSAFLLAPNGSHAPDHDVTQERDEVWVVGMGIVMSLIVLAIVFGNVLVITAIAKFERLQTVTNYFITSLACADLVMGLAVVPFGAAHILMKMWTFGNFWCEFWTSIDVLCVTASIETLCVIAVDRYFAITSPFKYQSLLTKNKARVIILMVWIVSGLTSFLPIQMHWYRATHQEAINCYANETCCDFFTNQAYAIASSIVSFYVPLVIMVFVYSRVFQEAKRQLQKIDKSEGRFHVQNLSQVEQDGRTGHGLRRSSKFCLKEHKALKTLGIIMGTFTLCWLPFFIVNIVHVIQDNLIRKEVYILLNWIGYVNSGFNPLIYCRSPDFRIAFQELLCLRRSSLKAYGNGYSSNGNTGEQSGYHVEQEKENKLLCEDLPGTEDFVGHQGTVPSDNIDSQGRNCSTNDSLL
Experimental: In the examples discussed above, conventional detergents such as DDM were used to extract IMPs from the membrane, and then in most cases the solution of detergent-solubilized protein was diluted with amphiphile-containing solutions to evaluate the new agents. With this approach it is possible that the small amount of residual conventional detergent could affect protein stability. To exclude this possibility, GLC-3 and GDN were used to extract wild type β2AR (β2AR WT) (Kobilka, Trends in Pharmacological Sciences 2011, 32, 213-218) from the membrane. Receptor activity was measured via a binding assay involving the antagonist [^3H]-dihydroalprenolol. […] GDN is therefore highly suitable for GPCR extraction.
A gene encoding amino-terminally FLAG epitope tagged β2AR was expressed in Sf9 cells by baculovirus, with no ligand present during culture. Cells were infected at a density of 4×10^6 cells/mL and then cultured for 48 hours prior to harvesting by centrifugation. Cells were resuspended and lysed by osmotic shock with a low ionic strength buffer (20 mM Tris pH 7.5, 1 mM EDTA). The lysed cells were aliquoted 35 mg per aliquot, then frozen. For extraction tests, 300 μL of solubilization buffer (20 mM HEPES pH 7.5, 100 mM NaCl) containing each amphiphile was added to each aliquot, which was then homogenized by pipet followed by grinding with a glass dounce tissue homogenizer. After two-hour incubation at 4° C., samples were centrifuged at maximum speed in a tabletop microcentrifuge to pellet insoluble material. Supernatant was removed and assayed for protein concentration by DC protein assay (Bio-Rad).
The amount of functional receptor was quantified by incubation for 1 hour with 10 nM 3H dihydroalprenolol. Samples were then separated by gel filtration over G-50 resin and radioactivity was quantified by liquid scintillation. Nonspecific binding was measured in the presence of 10 μM alprenolol. Assays were performed in triplicate at time points indicated. G-50 filtration was performed in buffer containing 20 mM HEPES pH 7.5, 100 mM NaCl, 10-fold CMC of the detergent tested. All binding assays were performed with ice cold buffers.

[1] = molecular target: T2, melibiose permease (MelB) (Salmonella typhimurium, UniProt P30878); assay: MelB solubilization and thermostability (SDS-PAGE, immunoblot); settings: 1.5 wt %; for MelB extraction from membranes at 0° C.: 10 min or 90 min
T2 construct: made in house; host or cells: E. coli DW2-R (ΔmelB, ΔlacZY), vector pK35ΔAHB/WT MelB/CH6
T2 sequence (P30878 whole entry): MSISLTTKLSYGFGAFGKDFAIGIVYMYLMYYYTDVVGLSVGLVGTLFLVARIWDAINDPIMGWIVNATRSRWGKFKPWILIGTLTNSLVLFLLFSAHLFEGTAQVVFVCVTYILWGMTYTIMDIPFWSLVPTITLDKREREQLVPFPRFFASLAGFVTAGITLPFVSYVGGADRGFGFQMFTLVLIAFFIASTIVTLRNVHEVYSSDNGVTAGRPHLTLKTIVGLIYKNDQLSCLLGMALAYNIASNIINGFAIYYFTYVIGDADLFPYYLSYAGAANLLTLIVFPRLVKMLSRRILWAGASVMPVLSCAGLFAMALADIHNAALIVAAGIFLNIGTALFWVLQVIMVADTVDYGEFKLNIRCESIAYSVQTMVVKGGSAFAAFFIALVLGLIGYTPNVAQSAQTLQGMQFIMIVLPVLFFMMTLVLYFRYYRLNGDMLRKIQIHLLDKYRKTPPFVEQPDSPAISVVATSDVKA
Experimental: DDM (1.5 wt %) or GDN (1.5 wt %) was used to extract MelB from S. typhimurium membranes at 0° C. for 10 min or 90 min and then aggregated material was removed via ultracentrifugation. The amount of MelB in solution was determined by SDS-PAGE with immunoblot detection (FIG. 10).
The effect of DDM and GDN on MelB thermostability was assessed by solubilizing the protein at the elevated temperatures for 90 min. […] Presumably MelB denatured and aggregated at the higher temperature in the presence of DDM. […] When MelB expressed in E. coli was used, similar results were obtained (FIG. 11).
The protocol reported by Chae and coworkers (Nat. Methods 2010, 7, 1003-1008) was used to evaluate MelB stability with DDM and GDN.
The reported protocol3 was used to evaluate MelB stability with DDM and GDN. Vector pK35ΔAHB/WT MelB/CH6 encoding the wild-type MelB with a 6-His tag at the C-terminus and E. coli DW2-R cells (ΔmelB and ΔlacZY) are used for the assay. Cells were harvested, resuspended in a buffer containing 20 mM Tris, pH 7.5, 200 mM NaCl and 10% glycerol. The harvested cells were subjected to French press and centrifugation at 20,000 g for 15 min. Subsequently, membranes were obtained via ultracentrifugation at 43,000 rpm for 3 hr in the Beckman rotor, Type 45 Ti rotor. A protein assay was carried out with a BCA kit (Thermo Scientific, Rockford, Ill.). For the measurement of solubilization efficiency, membrane samples containing MelB were incubated with a solubilization buffer (20 mM Tris, 200 mM NaCl, 10% glycerol, 20 mM melibiose, pH, 7.5) and 1.5 wt % DDM or GDN at 0° C. for 10 min. The final protein concentration was 10 mg/mL. For the MelB thermostability, the samples were incubated for 90 min at the four different temperatures (0, 45, 55, and 65° C.). After ultracentrifugation at 355,590 g in a Beckman Optima™ MAX Ultracentrifuge using a TLA-100 rotor for 45 min at 4° C., 10 μg protein before and after spin for each condition was analyzed by SDS-12% PAGE and immunoblotted with Penta-His-HRP antibody (Qiagen, Germantown, Md.).

membrane proteins = assay: Retention of extracted membrane proteins in soluble form in micelles (summary)
Excerpt: The amphiphiles were thus evaluated as membrane protein solubilizers and stabilizers and they compared very favorably with DDM, a standard reagent in the field. Compared to DDM, for example, one of the evaluated amphiphiles forms micelles at one-tenth of the concentration required for DDM. Compared with DDM, GDN performs similarly for extracting membrane proteins from membranes, and stably retains the proteins in a soluble form within the micelles for substantially longer (>3 weeks) than DDM. Such improved stability (without sacrificing extraction efficiency) is a valuable trait for research tool amphiphiles.
The amphiphiles described herein require lower concentrations than many commonly used surfactants to form stable micelles.

SMILES | β2AR WT initial activity, increase relative to DDM (wild type β2AR (β2AR WT); [3H]-dihydroalprenolol binding) [fold] | β2AR WT initial activity (wild type β2AR (β2AR WT); [3H]-dihydroalprenolol binding) | β2AR WT activity over 72 hours (wild type β2AR (β2AR WT)) | MelB extraction from membranes at 0° C. [1] | Soluble MelB at 55° C. ([1]; 90 min) | Soluble MelB at 65° C. ([1]; 90 min, 65° C.) | Time proteins are stably retained in soluble form within the micelles (membrane proteins) [weeks] | Soluble MelB at 45° C. ([1]; 90 min, 45° C.) | Time until stabilized protein activity began to decay (membrane proteins)
C[C@@H]1CC[C@@]2(OC1)O[C@H]1C[C@H]3[C@@H]4CC=C5C[C@@H](OCCC(CO[C@@H]6OC(CO)[C@@H](O[C@H]7OC(CO)[C@@H](O)C(O)C7O)C(O)C6O)CO[C@@H]6OC(CO)[C@@H](O[C@H]7OC(CO)[C@@H](O)C(O)C7O)C(O)C6O)CC[C@]5(C)[C@H]4CC[C@]3(C)[C@@H]1[C@@H]2C (stereo partly shown) [GDN, glyco-diosgenin] | > 3 | high initial activity | did not vary over 72 hours | not quite as efficient in extraction | large amounts of soluble protein | large amounts of soluble protein | > 3 |  | 
CCCCCCCCCCCCO[C@@H]1O[C@H](CO)[C@@H](O[C@H]2O[C@H](CO)[C@@H](O)[C@H](O)[C@H]2O)[C@H](O)[C@H]1O [DDM, dodecyl-β-D-maltoside, reference compound] |  | low initial activity | rapidly decomposed | quantitatively extract | no soluble protein was obtained |  |  | high yield of soluble MelB | a few hours or a few days
